Source: patent publication US20080056993A1, “Compositions, Methods and Kits Using Adenosine and Inosine in Combination for Diagnosis and Treatment” (ADENOBIO N.V., priority 2006, published 2008)
Several values for one entry are separate records, joined by “and”; a condition that tells them apart may be missing. Equal entries are not always repeated.

Experiments:
sheep = assay: Regional myocardial blood flow by colored microsphere technique in sheep; format: in vivo; details: mean of 9 experiments, after 5 minutes of adenosine or BIDOSINE
Source text: Regional blood flows, as well as potential changes in the distribution of coronary flow into different parts of the myocardium, were also studied. This was done by using a colored microsphere technique, essentially as described in Muller et al., “Developmental changes in cerebral autoregulatory capacity in the fetal sheep parietal cortex,” J Physiol. 539(Pt 3):957-67 (2002); Miller et al., “Physiological evidence for arteriovenous anastomoses in the uterine circulation of late-pregnant ewes,” Clin. Exp. Pharmacol. Physiol. 25(2):92-8 (1998); Herijgers et al., “Changes in organ perfusion after brain death in the rat and its relation to circulating catecholamines,” Transplantation 62: 330-335 (1996); and Wouters et al., “Ischemic event characteristics determine the extent of myocardial stunning in conscious dogs,” Basic Res. Cardiol. 91(2):140-6 (1996), the disclosures of which are incorporated herein by reference in their entireties. Briefly, colored microspheres were injected at baseline, and after 5 minutes of adenosine or BIDOSINE administration. At necropsy, tissue was digested and the number of colored microspheres per gram of wet weight in a tissue sample determined. By comparing these numbers with the number of microspheres in a reference sample drawn from the aorta at a predetermined rate, we could quantify the absolute flow rate to the tissue sample at the moment when the microspheres were injected. The statistical analysis was performed by the same methodology as for the hemodynamic parameters. Values are expressed in ml/min/g tissue (wet weight). LV=left ventricle; RV=right ventricle; endo=endocardial half; epi=epicardial half. As in Table 2, the numbers reflect the sequence of experimental conditions, as follows: 1) under baseline conditions; 2) under adenosine; 3) 15 minutes stabilization, then new measurements under baseline conditions; 4) measurements under bidosine.

human patients = details: cited from earlier work
[1] = test system: rat model of spinal cord ischemia; assay: Photothrombotic model of spinal cord ischemia in rats, behavioral studies; format: in vivo
Experimental: BIDOSINE administration was compared to adenosine (0.1 mg/kg/min), administered by continuous i.v. infusion from thirty to sixty minutes after the injury (n=13 in each group). As controls, a group of animals (n=11) received a 60-min IV perfusion of saline solution starting 30 min after the injury. The potential neuroprotective effect of the compound was evaluated by performing various behavioral studies. In these experiments, the photothrombotic model of ischemia was chosen over the occlusion model (aortic clamp), since it better reproduces the pathophysiology of an ischemic insult. The photothrombotic model has the advantages of (i) causing a […] processes that more perfectly mimics the pathophysiological conditions observed in clinics, and (ii) affecting a controlled volume of nervous tissue. Moreover, the location of the lesion can be restricted to precise regions (three to four […]). The injury is created using a beam of a xenon lamp conveyed by fiberoptics on the selected vertebral site. The irradiation is performed over the translucent dorsal surface of the vertebral laminae. The green light (560 nm) induces the excitation of the previously injected dye (Rose Bengal) present in the spinal cord microvasculature. […]

[2] = Maximal solubility in nonpyrogenic fluid suitable for parenteral infusion; format: physicochemical; details: adenosine and inosine combined in a nonpyrogenic fluid suitable for parenteral infusion
Experimental: Combined in a nonpyrogenic, fluid suitable for parenteral infusion, maximal adenosine solubility is about 4 mg/ml and that of inosine 20 mg/ml. Concentrations approaching one or both of these maxima are convenient for unit dosage forms intended for long infusion times, since high concentrations of the nucleoside actives reduce the volume required to be infused. Typical embodiments include, for example, 250 ml containers (vials, etc.) containing 1,000 mg of adenosine with 100 mg, 1,000 mg, 2,000 mg, or even 3,000 mg, 4,000 mg, 5,000 mg, even 6,000 mg of inosine, with intermediate inosine amounts permissible.

male Wistar rats [3] = assay: Reperfusion injury after myocardial ischemia in the rat, repeated with 45 minute ischemia; format: in vivo; details: day 30 post ischemia, preliminary
Experimental: The experiment was repeated with 45 minute period of ischemia, and with the addition of a further BIDOSINE experimental group. The BIDOSINE composition for this additional group comprised adenosine, administered at 0.01 mg/kg/min ( 1/10 its single agent maximally effective dose) with inosine 0.20 mg/kg/min, for an A:I weight ratio of 1:20. Preliminary results (n=5 per group) of this ongoing study are given in Table 5, below, reporting day 30 post ischemia results.

male Wistar rats [4] = assay: Reperfusion injury after left myocardial ischemia (35 min LAD occlusion) in the rat, echocardiography; format: in vivo; parameters: EDV (end-diastolic volume), single animals / ESV (end-systolic volume), single animals / EDV (end-diastolic volume), group mean (unlabelled last line of group) / ESV (end-systolic volume), group mean (unlabelled last line of group): unit not given here; details: for EDV (end-diastolic volume), single animals / EF (ejection fraction), single animals / ESV (end-systolic volume), single animals: 60 min i.v. infusion after 35 min occlusion

## Nc1ncnc2c1ncn2[C@@H]1O[C@H](CO)[C@@H](O)[C@H]1O [adenosine]
sheep
  Regional blood flow, left ventricle endocardial half (Lvendo), mean: 1.763 ml/min/g tissue (wet weight)
  Regional blood flow, left ventricle epicardial half (Lvepi), mean: 2.039 ml/min/g tissue (wet weight)
  Regional blood flow, right ventricle endocardial half (RVendo), mean: 2.227 ml/min/g tissue (wet weight)
  Regional blood flow, right ventricle epicardial half (RVepi), mean: 1.728 ml/min/g tissue (wet weight)
sheep; listed as Adenosine
  Regional blood flow, left ventricle endocardial half (Lvendo), mean: 1.764 ml/min/g tissue (wet weight)
Human patients; continuous intravenous infusion 140 μg/kg/min for 6 minutes
  side effects: frequent side effects
Human patients; dosage of 70 μg/kg/min or less
  adverse reactions: very few and of mild intensity
[1]; BIDOSINE 1:5 (adenosine 0.05 + inosine 0.25 mg/kg/min) or adenosine 0.1 mg/kg/min i.v. after injury, follow-up to day 10
  behavioral recovery (motor, sensory and reflex scores), all tested functions: best efficacy until day 4
[1]; compared to saline controls, to day 10, two way ANOVA p<0.001
  gross and fine motor functional outcomes (open field, inclined plane, grid navigation): Statistically significant improvements over control
[2]
  solubility: ~4000 µg/mL
Male Wistar rats [3]
  left ventricular EF (LVEF): 45%
Male Wistar rats [3]; n=5 per group
  EDV: 0.47
  ESV: 0.26
  LVEF: 0.45
Male Wistar rats [4]; Post-operative day 2
  EDV (end-diastolic volume), group mean (unlabelled last line of group): 0.40
  EF (ejection fraction), group mean (unlabelled last line of group): 0.60
  ESV (end-systolic volume), group mean (unlabelled last line of group): 0.16
  EDV (end-diastolic volume), single animals: 0.41 and 0.35 and 0.37 and 0.48
  EF (ejection fraction), single animals: 0.67 and 0.64 and 0.60 and 0.49
  ESV (end-systolic volume), single animals: 0.14 and 0.13 and 0.15 and 0.24
Male Wistar rats [4]; Post-operative day 30
  EDV (end-diastolic volume), group mean (unlabelled last line of group): 0.38
  EF (ejection fraction), group mean (unlabelled last line of group): 0.59
  ESV (end-systolic volume), group mean (unlabelled last line of group): 0.20
  EDV (end-diastolic volume), single animals: 0.44 and 0.42 and 0.33 and 0.36
  EF (ejection fraction), single animals: 0.61 and 0.32 and 0.65 and 0.44
  ESV (end-systolic volume), single animals: 0.17 and 0.29 and 0.12 and 0.20
Male Wistar rats [4]; day 30, adenosine 0.1 mg/kg/min or adenosine 0.05 + inosine 0.25 mg/kg/min
  ejection fraction: 59%
